21 molecules from PubChem BioAssay (NCI) can be followed below.

Holding throughout (experiment): DTP human tumour cell line panel, 48 h
The test system of assay [1] is DLD-1 colon.
Assay [2] relates to DMS 114 small cell lung.
The test system of assay [3] is DMS 273 small cell lung.
In assay [4] the test system is LXFL 529 NSCLC.
Assay [5] concerns MDA-N.
Assay [6] relates to RXF-631 renal.
The subject of assay [7] is SNB-78 CNS.
The test system of assay [8] is XF 498 CNS.
For assay [9], the system named is KM20L2 colon.

Structures are written as SMILES.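 Method: 48-hour compound exposure of cells in 96-well plates, five concentrations, linear interpolation of endpoints. GI50 = concentration required for 50% inhibition of growth. TGI is the concentration that stops growth completely.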 Bounds are passed on as bounds.

Usually TGI stands for the concentration giving total growth inhibition. A low value points to more potent growth arrest. In the case of `O=C(NC(=O)c1c(F)cccc1F)Nc1cccc(Oc2ncc(Cl)cn2)c1`, the TGI was above 100 µM in assay [1]; above 100 µM in assay [2]; above 100 µM in assay [3]; above 100 µM in [4]; above 22.7 µM in assay [5]; above 100 µM in assay [6]. The TGI in assay [7] was above 100 µM; in [8], 69 µM.
With `CCCC1(CC(=O)O)OCCc2c1[nH]c1ccccc21` (configuration not stated), the TGI in assay [1], in assay [2], in assay [3], in [9], in assay [4] and in assay [7] was above 100 µM in each case. This molecule had a TGI in assay [8] above 100 µM.
As to `COC(=O)C(=O)CC(=O)CCn1[nH]c(=O)c(Cl)c(Cl)c1=O`, the TGI in assay [1], in assay [2], in [3], in assay [9], in [4] and in assay [7] was above 100 µM throughout. Besides, the TGI in assay [8] is above 100 µM.
In turn, `Oc1ccc2ccccc2c1N=Nc1cccc2ccccc12` gave a TGI in assay [5] above 100 µM.
`CN(C)Cc1cc(C(F)(F)F)ccc1C(O)(c1ccccc1)c1ccccc1` had a TGI in [5] of 33.7 µM.
As for `COc1cc(NS(=O)(=O)c2ccc(C)cc2)c2nccnc2c1`, the TGI in assay [1] is above 100 µM; in assay [2] it was 40.8 µM; in [3], above 100 µM; in assay [9], above 100 µM; in [4], above 100 µM; in [8], above 100 µM.
In the case of `N#C/C(=C/c1cccc(Oc2ccccc2)c1)c1ccccc1`, the TGI in assay [1], in assay [2], in assay [4], in assay [7] and in assay [8] was above 100 µM in each case.
Usually GI50 stands for the concentration giving 50% growth inhibition. For `CCC[CH2][Sn]([CH2]CCC)([O]C(=O)CN)[O]C(=O)CN`, the GI50 in assay [1] was 92.7 µM; in [2] it was 17.9 µM; in [3], 38.6 µM; in assay [9], 63.6 µM; in assay [4], 11.4 µM; in [7], 21.6 µM. Further, the GI50 in [8] was 19.6 µM. The TGI in assay [1] is above 100 µM; in assay [2], 46.5 µM; in assay [3], above 100 µM; in assay [9], above 100 µM; in assay [4], 26 µM; in [7], 72 µM. For the same molecule, in assay [8], the TGI was 48 µM.
With `C[C@]12CC=CC(=O)[C@@]1(C)CCC(=O)C2`, the TGI in [1], in [2], in assay [3], in [4], in [6] and in assay [7] was above 100 µM each time. The same molecule came in with a TGI in assay [8] above 100 µM.
Take `Cc1ccc(S(=O)(=O)OC2CC=CC2)cc1`: the concentration for total growth inhibition (TGI) in assay [1], in assay [2], in [3], in assay [9], in assay [4] and in [7] was above 100 µM throughout. The TGI in [8] was above 100 µM.
On to `Cc1ccc(S(=O)(=O)N/N=C2\CCCCC23CCC(=O)NC3)cc1` (configuration not stated), for which the TGI in [1], in assay [2], in [3], in assay [9], in [4] and in assay [6] was above 100 µM each time. The molecule also displayed a concentration for total growth inhibition (TGI) in assay [7] above 100 µM.
As for `CC(=O)C1C(c2ccccc2)C2(C)OC(=O)C(C#N)C12C` (configuration not stated), the TGI in assay [1], in assay [2], in [3], in assay [9], in [4] and in assay [7] was above 100 µM throughout. Further, the TGI in [8] was above 100 µM.
Consider `CCCCCCCCCCCCCP(=O)(O)O`, for which the TGI in assay [1], in [2], in [3], in [9], in assay [4] and in assay [6] was above 100 µM in each case. The TGI in assay [7] and in [8] was above 100 µM each time.
In assay [5], `CC(C)C(O)(C(C)C)C(C)C` returned a total growth inhibition concentration (TGI) above 100 µM.
In the case of `NC1=NN(c2ccccc2)C(=O)C1C(=O)CCC(=O)Nc1cccc(Cl)c1` (configuration not stated), the TGI in assay [1], in assay [2], in [3], in assay [9], in [4] and in [7] was above 100 µM each time. In [8], this molecule displayed a TGI above 100 µM.
`Cc1ccc(S(=O)(=O)N=Nc2c(O)[nH]c3cc(O)c(C(=O)O)cc23)cc1` gave a TGI in [5] above 100 µM.
The same measure, in the same setting: under `CNC(=O)OCc1c(COC(=O)NC)c(-c2ccc(-c3ccccc3)cc2)n(C)c1C` stands 18.5 µM.
As to `Cc1cn(C2CC(OC(=O)c3ccc(Cl)cc3)C(COC(=O)c3ccc(Cl)cc3)O2)c(=O)[nH]c1=O` (configuration not stated), the TGI in assay [5] is above 100 µM.
Take `COc1ccc2nc3cc(Cl)ccc3c(Sc3ccc([N+](=O)[O-])cc3C)c2c1`: the TGI in assay [1], in [2], in assay [3], in [9], in assay [4] and in assay [7] was above 100 µM in each case. The TGI in assay [8] is above 100 µM.
`O=C1N/C(=C\[N+](=O)[O-])c2ccccc21`: the TGI in assay [1], in assay [2], in assay [3], in [9], in [4] and in assay [6] was above 100 µM throughout. For the same molecule, in assay [7], the TGI was above 100 µM.
For the molecule `Cc1cc(N(CC(C)Br)CC(C)Br)ccc1N=Nc1ccccc1C(=O)O` (configuration not stated), the TGI in assay [1] turned out to be 16.6 µM; in assay [2], 11.1 µM; in assay [3], 20.5 µM; in [9], 24.2 µM; in [5], 20.5 µM; in [7], 40.2 µM. The molecule also yielded a TGI in assay [8] of 4.62 µM.
